Laboratory results from ChEMBL document CHEMBL5038624, “Construction and activity evaluation of novel dual-target (SE/CYP51) anti-fungal agents containing amide naphthyl structure” (Eur J Med Chem, 2022).
≈ marks a conversion by molar mass, not a printed value. Calls of active or inactive are those of the source. The rule behind the calls is not given here.

What was measured:
[1] = system: Candida tropicalis; test: Antifungal activity against Candida tropicalis ATCC 1369 assessed as reduction in fungal growth incubated for 72 hrs by CLSI protocol based broth microdilution method; format: functional
[2] = Toxicity in mouse infected with Candida albicans ATCC SC5314 assessed as effect on heart at 4 mg/kg,ip administrated every 2 days for 14 days by hematoxylin-eosin staining based assay; format: organism-based; details: in vivo, 336 h, time 14 day
[3] = system: Candida albicans; test: Induction of apoptosis against Candida albicans ATCC SC5314 assessed as mild apoptotic cells measured after 48 hrs by Annexin V-FITC/propidium iodide staining based flow cytometry (Rvb =0.29 %); format: functional
[4] = system: Candida albicans; test: Antifungal activity against Candida albicans ATCC SC5314 assessed as irregular cell structure incubated for 48 hrs by TEM analysis; format: functional, organism-based
[5] = system: Candida albicans; test: Antifungal activity against Candida albicans ATCC SC5314 infected in mouse assessed as decrease in fungal infection at 4 mg/kg,ip administrated every 2 days for 14 days; format: functional, organism-based; details: time 14.0 day
[6] = system: Candida albicans; test: Induction of apoptosis against Candida albicans ATCC SC5314 assessed as necrotic cells measured after 48 hrs by Annexin V-FITC/propidium iodide staining based flow cytometry (reference value: 18.22 %); format: functional
[7] = system: Candida albicans; test: Inhibition of SE/CYP51 in Candida albicans ATCC SC5314 assessed as eburicol level incubated for 48 hrs by LC/MS analysis; design: scale not given: the % may be the effect or the level left
[8] = system: Candida albicans; test: Antifungal activity against Candida albicans ATCC SC5314 assessed as disappearance of fungal cell boundaries incubated for 96 hrs by TEM analysis; format: functional, organism-based
[9] = Toxicity in mouse infected with Candida albicans ATCC SC5314 assessed as effect on kidney at 4 mg/kg,ip administrated every 2 days for 14 days by hematoxylin-eosin staining based assay; format: organism-based; details: in vivo, 336 h, time 14 day
[10] = system: Nakaseomyces glabratus; test: Antifungal activity against Candida glabrata ATCC 0001 assessed as reduction in fungal growth incubated for 72 hrs by CLSI protocol based broth microdilution method; format: functional
[11] = system: Candida albicans; test: Inhibition of SE/CYP51 in Candida albicans ATCC SC5314 assessed as lanosterol level incubated for 48 hrs by LC/MS analysis; design: scale not given: the % may be the effect or the level left
[12] = system: Candida albicans; test: Inhibition of SE/CYP51 in Candida albicans ATCC SC5314 assessed as unknown sterol level incubated for 48 hrs by LC/MS analysis; design: scale not given: the % may be the effect or the level left
[13] = Toxicity in mouse infected with Candida albicans ATCC SC5314 assessed as effect on liver at 4 mg/kg,ip administrated every 2 days for 14 days by hematoxylin-eosin staining based assay; format: organism-based; details: in vivo, 336 h, time 14 day
[14] = system: Candida albicans; test: Antifungal activity against Candida albicans ATCC SC5314 infected in mouse assessed as reduction on endothelial fungal infection at 4 mg/kg,ip administrated every 2 days for 14 days by hematoxylin-eosin staining based assay; format: functional, organism-based; details: time 14.0 day
[15] = Toxicity in mouse infected with Candida albicans ATCC SC5314 assessed as effect on lung at 4 mg/kg,ip administrated every 2 days for 14 days by hematoxylin-eosin staining based assay; format: organism-based; details: in vivo, 336 h, time 14 day
[16] = system: Candida albicans; test: Induction of apoptosis against Candida albicans ATCC SC5314 assessed as viable cells measured after 48 hrs by Annexin V-FITC/propidium iodide staining based flow cytometry (reference value: 80.78 %); format: functional
[17] = Inhibition of SE in Candida albicans ATCC SC5314 measured after 30 mins by HPLC analysis
[18] = system: Candida albicans; test: Antifungal activity against Candida albicans strain 904 assessed as reduction in fungal growth incubated for 72 hrs by CLSI protocol based broth microdilution method; format: functional
[19] = Toxicity in mouse assessed as effect on aspartate transaminase level; details: in vivo
[20] = Toxicity in mouse assessed as effect on blood urea nitrogen level; details: in vivo
[21] = Toxicity in mouse infected with Candida albicans ATCC SC5314 assessed as effect on spleen at 4 mg/kg,ip administrated every 2 days for 14 days by hematoxylin-eosin staining based assay; format: organism-based; details: in vivo, 336 h, time 14 day
[22] = system: Candida albicans; test: Antifungal activity against Candida albicans strain 901 assessed as reduction in fungal growth incubated for 72 hrs by CLSI protocol based broth microdilution method; format: functional
[23] = system: Aspergillus fumigatus; test: Antifungal activity against Aspergillus fumigatus KM8001 assessed as reduction in fungal growth incubated for 72 hrs by CLSI protocol based broth microdilution method; format: functional
[24] = system: Candida albicans; test: Antifungal activity against Candida albicans strain 17 assessed as reduction in fungal growth incubated for 72 hrs by CLSI protocol based broth microdilution method; format: functional
[25] = system: Candida albicans; test: Induction of apoptosis against Candida albicans ATCC SC5314 assessed as late apoptotic cells measured after 48 hrs by Annexin V-FITC/propidium iodide staining based flow cytometry (reference value: 0.71 %); format: functional
[26] = system: Mus musculus; test: Antifungal activity against Candida albicans ATCC SC5314 infected in mouse assessed as increase in body weight at 4 mg/kg,ip administrated every 2 days for 14 days; format: functional, organism-based; details: time 14.0 day
[27] = system: Candida albicans; test: Antifungal activity against Candida albicans strain CaR assessed as reduction in fungal growth incubated for 72 hrs by CLSI protocol based broth microdilution method; format: functional
[28] = system: Candida albicans; test: Antifungal activity against Candida albicans ATCC SC5314 assessed as irregular cell structure incubated for 72 hrs by TEM analysis; format: functional, organism-based
[29] = Toxicity in mouse assessed as effect on alanine transaminase level; details: in vivo
[30] = system: Candida albicans; test: Inhibition of SE/CYP51 in Candida albicans ATCC SC5314 assessed as ergosterol level incubated for 48 hrs by LC/MS analysis; design: scale not given: the % may be the effect or the level left
[31] = system: Candida albicans; test: Antifungal activity against Candida albicans strain 632 assessed as reduction in fungal growth incubated for 72 hrs by CLSI protocol based broth microdilution method; format: functional
[32] = target: Lanosterol 14-alpha demethylase (Candida albicans (strain SC5314 / ATCC MYA-2876) (Yeast), UniProt P10613); test: Inhibition of CYP51 in Candida albicans ATCC SC5314 measured after 30 mins by HPLC analysis
[33] = system: Pichia kudriavzevii; test: Antifungal activity against Candida krusei ATCC 6258 assessed as reduction in fungal growth incubated for 72 hrs by CLSI protocol based broth microdilution method; format: functional
[34] = system: Candida albicans; test: Inhibition of SE/CYP51 in Candida albicans ATCC SC5314 assessed as squalene level incubated for 48 hrs by LC/MS analysis; design: scale not given: the % may be the effect or the level left
[35] = system: Candida albicans; test: Antifungal activity against Candida albicans SC5314 assessed as reduction in fungal growth incubated for 72 hrs by CLSI protocol based broth microdilution method; format: functional
[36] = system: Candida albicans; test: Antifungal activity against Candida albicans ATCC SC5314 assessed as decrease in fungal cell density by fluorescence microscopy; format: functional, organism-based

Lanosterol 14-alpha demethylase, sequence (P10613 whole entry): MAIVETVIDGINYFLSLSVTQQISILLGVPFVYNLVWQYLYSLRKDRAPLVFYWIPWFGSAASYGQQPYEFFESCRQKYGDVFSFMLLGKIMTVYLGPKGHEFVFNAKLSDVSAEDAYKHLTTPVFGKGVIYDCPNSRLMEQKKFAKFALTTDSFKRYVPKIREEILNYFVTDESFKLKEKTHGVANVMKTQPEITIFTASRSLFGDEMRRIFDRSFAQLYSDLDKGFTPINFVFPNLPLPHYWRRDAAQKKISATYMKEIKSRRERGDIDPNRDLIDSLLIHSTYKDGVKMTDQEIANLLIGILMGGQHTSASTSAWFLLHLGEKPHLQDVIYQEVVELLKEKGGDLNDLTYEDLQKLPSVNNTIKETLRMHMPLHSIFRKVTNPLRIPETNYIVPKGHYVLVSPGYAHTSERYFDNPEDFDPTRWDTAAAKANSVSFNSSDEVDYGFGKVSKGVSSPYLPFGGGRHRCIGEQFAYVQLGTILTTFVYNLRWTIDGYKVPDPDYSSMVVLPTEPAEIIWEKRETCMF

MIC50 [1]: 0.125 µg/mL (≈ 0.339 µM) | Activity [7]: 32.9% | MIC50 [10]: 0.25 µg/mL (≈ 0.679 µM) | Activity [11]: 11.4% | Activity [12]: 7% | IC50 [17]: 930 nM | MIC50 [18]: 2 µg/mL (≈ 5.43 µM) | MIC50 [22]: 1 µg/mL (≈ 2.71 µM) | MIC50 [23]: 2 µg/mL (≈ 5.43 µM) | MIC50 [24]: 2 µg/mL (≈ 5.43 µM) | MIC50 [27]: 2 µg/mL (≈ 5.43 µM) | Activity [30]: 19.2% | MIC50 [31]: 2 µg/mL (≈ 5.43 µM) | IC50 [32]: 209 nM | MIC50 [33]: 0.25 µg/mL (≈ 0.679 µM) | Activity [34]: 29.5% | MIC50 [35]: 0.125 µg/mL (≈ 0.339 µM)
Compound: O=C(/C=C/c1cccc2ccccc12)NC(Cn1cncn1)c1ccccc1 (stereo unspecified)
Activity [2]: Non-Toxic | Activity [3]: 0.26% | Activity [4]: Active | Activity [5]: Active | Activity [6]: 46.23% | Activity [8]: Active | Activity [9]: Non-Toxic | Activity [13]: Non-Toxic | Activity [14]: Active | Activity [15]: Non-Toxic | Activity [16]: 52.27% | Activity [19]: 118 IU/L | Activity [20]: 6.1 mmol/L | Activity [21]: Non-Toxic | Activity [25]: 1.24% | Activity [26]: Active | Activity [28]: Active | Activity [29]: 101.6 IU/L | Activity [36]: Active
